Where two headings read alike, the source gives them in different places.
How the values were obtained:
[1] = test system: breast adenocarcinoma cells of MCF-7 line; assay: Cytotoxicity, trypan blue exclusion assay, 24 h; settings: Homo sapiens
Method: (§3) Walter Berger, Institute of Cancer Research, Vienna Medical University. Human embryonal kidney cells of HEK293 line were obtained from cell culture collection of R.E. Kavetsky Institute of Experimental Pathology, Oncology and Radiobiology, National Academy of Sciences of Ukraine (Kyiv, Ukraine).
(§4) Cells were seeded (5 × 10^5/mL for leukemia cells and 1 × 10^5/mL for carcinoma cells) into 24-well tissue culture plates (Greiner Bio-one, Frickenhausen, Germany) and were permitted to adhere and grow for 24 h before the experiment. Short-term (24 h) cytotoxic effect of antitumor drugs was studied under the Evolution 300 Trino microscope (Delta Optical, Nowe Osiny, Poland) after cell staining with trypan blue dye (0.1%).
(§5) Final concentration of DMSO in cell culture was 0.5% or less.
(§6) All experiments were performed in triplicate and repeated three times. Statistical analysis of data was conducted in GraphPad Prism 7.0 Software (GraphPad Software, Inc.) using Student’s t test. Statistical significance was set at P ≤ 0.05. Evaluation of LC50 values of each compound was done by built-in functions of GraphPad Prism (non-linear regression, curve fit, [Inhibitor] vs. normalized response - Variable slope).

[2] = test system: leukemia cells of HL-60 line; assay: Cytotoxicity, trypan blue exclusion assay, 24 h; assay type: cell-based; settings: Homo sapiens
Description: (§1) Taking into consideration the high abundance of CK2 kinase in leukemia and lymphomas, the ability of selected CK2-HDAC dual inhibitors to circumvent MDR was investigated in human leukemia cells of HL-60 line and its doxorubicin-resistant (HL-60/adr, MRP-1 overexpression) and vincristine-resistant (HL-60/vinc, P-gp overexpression) sublines.
(§2) Statistical significance was set at P ≤ 0.05.

[3] = test system: HL-60/vinc (vincristine-resistant, P-gp overexpression); assay: Cytotoxicity, trypan blue exclusion assay, 24 h; assay type: cell-based; settings: Homo sapiens, HL60/vinc
Description: as §1, §2

[4] = test system: HL-60/adr (doxorubicin-resistant, MRP-1 overexpression); assay: Cytotoxicity, trypan blue exclusion assay, 24 h; assay type: cell-based; settings: Homo sapiens, HL60/ADR
Description: as §1, §2

HDAC6 = target: T1, HDAC6 (Homo sapiens, UniProt Q9UBN7); assay: HDAC6 inhibition, fluorometric method (Enzo Fluorometric Drug Discovery Assay Kit); assay type: biochemical; settings: read-out: Inhibitory activity IC50 on HDAC6
T1 construct: purchased Enzo Life Sciences, Inc
T1 sequence (Q9UBN7 1-1215): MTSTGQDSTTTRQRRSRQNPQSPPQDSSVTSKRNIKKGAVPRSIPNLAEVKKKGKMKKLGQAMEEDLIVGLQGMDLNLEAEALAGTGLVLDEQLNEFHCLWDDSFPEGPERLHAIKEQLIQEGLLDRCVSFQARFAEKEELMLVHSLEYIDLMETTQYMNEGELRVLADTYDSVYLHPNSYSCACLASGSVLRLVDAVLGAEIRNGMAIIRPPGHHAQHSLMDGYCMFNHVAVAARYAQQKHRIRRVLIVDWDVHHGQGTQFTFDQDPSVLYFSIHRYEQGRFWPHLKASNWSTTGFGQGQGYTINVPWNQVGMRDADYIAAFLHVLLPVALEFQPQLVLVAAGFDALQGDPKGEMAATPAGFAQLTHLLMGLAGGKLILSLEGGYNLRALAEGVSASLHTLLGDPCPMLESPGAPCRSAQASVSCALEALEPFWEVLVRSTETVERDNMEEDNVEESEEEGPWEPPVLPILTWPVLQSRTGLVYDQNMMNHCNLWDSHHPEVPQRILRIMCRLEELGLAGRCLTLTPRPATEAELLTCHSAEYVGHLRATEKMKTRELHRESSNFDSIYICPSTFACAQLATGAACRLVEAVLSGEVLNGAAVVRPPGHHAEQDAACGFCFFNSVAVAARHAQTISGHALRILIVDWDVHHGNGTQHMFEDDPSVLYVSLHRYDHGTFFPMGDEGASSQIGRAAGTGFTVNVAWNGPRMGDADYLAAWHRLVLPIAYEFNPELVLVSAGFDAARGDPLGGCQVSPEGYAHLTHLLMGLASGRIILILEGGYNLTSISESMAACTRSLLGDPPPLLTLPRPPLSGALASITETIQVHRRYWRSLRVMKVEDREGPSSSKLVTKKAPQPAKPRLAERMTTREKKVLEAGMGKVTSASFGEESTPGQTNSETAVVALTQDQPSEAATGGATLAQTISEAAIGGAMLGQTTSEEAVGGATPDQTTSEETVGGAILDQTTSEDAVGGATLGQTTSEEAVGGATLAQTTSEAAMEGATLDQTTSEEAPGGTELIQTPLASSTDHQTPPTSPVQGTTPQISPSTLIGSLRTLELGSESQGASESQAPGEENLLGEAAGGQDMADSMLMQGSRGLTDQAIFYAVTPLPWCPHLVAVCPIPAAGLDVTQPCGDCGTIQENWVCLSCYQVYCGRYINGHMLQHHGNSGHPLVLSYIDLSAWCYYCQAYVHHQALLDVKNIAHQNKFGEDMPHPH
Method: For this reason, we analyzed the activity of 15 and 19, together with other compounds from the alkyl and triazole series in HDAC6, tested using a fluorometric method (Table 1).
15 µL of HDAC1 (0.4 µg/well) or HDAC6 (0.5 µg/well) were incubated at 37 °C for 30 minutes with 10 µL of inhibitor diluted in 5% DMSO and 25 µL of fluorogenic substrate (0.05 µL/well of 5 mM solution). Reactions were stopped with the developer and trichostatin A, diluted in buffer without BSA, and the plate was incubated at 30 °C for 45 min, followed by measuring the fluorescence (Ex. 360 nm, Em. 450 nm, Fluoroskan, Thermo Scientific).

Jurkat T-leukemia cells = assay: Cell cycle analysis, PI staining, FACS; assay type: cell-based, human; settings: 30 µM, 24 h
Method: To reveal potential mechanisms of cell death induction, selected CK2-HDAC inhibitors were tested in a PI staining assay. […] However, this effect was masked for high doses of DMAT-hydroxamate derivatives (30 µM) due to their strong proapoptotic activity, leading to appearance of > 80% cells in pre-G1 phase (apoptotic). Thus, lower concentrations of 11b–d (2 µM and 5 µM) had to be addressed in order to observe their inhibitory effect on cell cycling. […] As G1/S cell arrest is considered a typical feature of HDAC inhibitors, including SAHA [79], the observed phenomenon is yet another confirmation of HDAC targeting by these novel dual inhibitors in cell culture.
Cell cycle of the analyzed cells was assessed according to protocol described by Walker et al.. After drug treatment, 2 × 10^6 cells were collected, pelleted by spinning at 1,000 rpm, 4 °C for five minutes, resuspended in 1 mL of cold PBS and fixed by adding drop by drop 4 mL of −20 °C absolute ethanol. On the next day, fixed cells were centrifuged again and cell pellets were resuspended in 1 mL of PBS. Then 100 µL of 200 µg/mL DNase-free, RNase A (Invitrogen, USA) was added to cell suspension and incubated at 37 °C for 30 minutes. After this 100 µL of 1 mg/mL propidium iodide was added to samples, which were incubated at room temperature for 5–10 min and then analyzed on FACScan flow cytometer (Becton Dickinson, USA). Cell cycle analysis was carried out using the Cytomation Summit Software v3.1 (Cytomation Inc., USA).

[5] = Cytotoxicity, trypan blue exclusion assay, 24 h (pseudonormal cells); settings: human, HEK293 embryonic kidney cells (pseudonormal)
Method: as §3, §4, §5, §6

[6] = MCF7, 24 h, read-out: LC50 Values of Compounds for Cell Line, MCF-7
[7] = Table 2, trypan blue, 24 h, M ± SD, read-out: LC50 Values of Compounds for Cell Line, HL-60
[8] = supplement Table 4S, M±SD, read-out: LC50 values of compounds for cell line, HL-60
[9] = Table 2, trypan blue, 24 h, M ± SD, read-out: LC50 Values of Compounds for Cell Line, HL-60/vinc
[10] = supplement Table 4S, M±SD, read-out: LC50 values of compounds for cell line, HL-60/vinc
[11] = Table 2, trypan blue, 24 h, M ± SD, read-out: LC50 Values of Compounds for Cell Line, HL-60/adr
[12] = supplement Table 4S, M±SD, read-out: LC50 values of compounds for cell line, HL-60/adr
[13] = LC50 Values of Compounds for Cell Line, HEK293, Table 2, trypan blue, 24 h, M ± SD
[14] = LC50 values of compounds for cell line, HEK293, supplement Table 4S, M±SD

| Structure (SMILES) | CC50 [1, 6] [µM] | CC50 ([1]; MCF7, read-out: LC50 values of compounds for cell line, MCF-7) [µM] | CC50 [2, 7] [µM] | CC50 [2, 8] [µM] | CC50 [3, 9] [µM] | CC50 [3, 10] [µM] | CC50 [4, 11] [µM] | CC50 [4, 12] [µM] | IC50 (HDAC6) [µM] | cells in pre-G1 phase (apoptotic) (Jurkat T-leukemia cells) | CC50 at 24 h [5, 13] [µM] | CC50 at 24 h [5, 14] [µM] |
| --- | --- | --- | --- | --- | --- | --- | --- | --- | --- | --- | --- | --- |
| CN(C)c1nc2c(Br)c(Br)c(Br)c(Br)c2n1CCc1cn(CCC(=O)NO)nn1 [Compound 7c, N-Hydroxy-3-(4-(2-(4,5,6,7-tetrabromo-2-(dimethylamino)-1H-benzo[d]imidazol-1-yl)ethyl)-1H-1,2,3-triazol-1-yl)propanamide] | 27.8 ± 6.06 | 15.7 | 24 ± 8.66 | 7.67 | 49.5 ± 9.47 | 17.6 | 18.6 ± 2.09 | 16.2 | 30.7 | increased insignificantly | 42.7 ± 8.65 | 23.3 |
| O=C(NO)c1ccc(Cn2nc3c(Br)c(Br)c(Br)c(Br)c3n2)cc1 [Compound 15a, N-Hydroxy-4-((tetrabromo-2H-benzo[d][1,2,3]triazol-2-yl)methyl)benzamide] | 13.7 ± 2.67 | – | 34.4 ± 7.89 | > 30 | 36.6 ± 4.74 | > 30 | 32.4 ± 3.44 | > 30 | 11 | increased insignificantly | 33.7 ± 7.52 | > 30 |
| CN(C)c1nc2c(Br)c(Br)c(Br)c(Br)c2n1Cc1ccc(C(=O)NO)cc1 [Compound 19, N-Hydroxy-4-((4,5,6,7-tetrabromo-2-(dimethylamino)-1H-benzo[d]imidazol-1-yl)methyl)benzamide] | 13.6 ± 0.78 | – | – | > 30 | 21.7 ± 3.39 | 26.6 | 32.3 ± 5.32 | > 30 | 20.6 | increased insignificantly | 33.4 ± 11.8 | 24.5 |
